# According to ChEMBL document CHEMBL3885861, “Open TG-GATES”:
# Species on record: Rattus norvegicus
# Assay: Open TG-GATES - Regimen: Single
# Assay type: toxicity, organism-based, Sprague-Dawley
# Design: regimen Single, gender Male, age 6 weeks
# Conditions: in vivo, po, route gavage; for KIDNEY_L / KIDNEY_R / KIDNEY_TOTAL: tissue Kidney; for LIVER: tissue Liver
# [1] = 25 mg/kg, 9 h, tissue Blood, dose level Low
# [2] = 25 mg/kg, 9 h, tissue Plasma, dose level Low
# [3] = 25 mg/kg, 24 h, tissue Blood, dose level Low
# [4] = 25 mg/kg, 24 h, tissue Plasma, dose level Low
smiles,measurement,setting,value
O=C1CN(/N=C/c2ccc(-c3ccc([N+](=O)[O-])cc3)o2)C(O)=N1 [DANTROLENE],APTT,[1],16.4 s
same,Bas,[1],0%
same,Eos,[1],0.6%
same,Fbg,[1],209.8 mg/dL
same,Hb,[1],13.9 g/dL
same,Lym,[1],80.6%
same,MCH,[1],21.6 pg
same,MCHC,[1],33.1%
same,MCV,[1],65.4 fL
same,Mono,[1],5%
same,Neu,[1],14%
same,RBC,[1],644 x10_4/ul
same,Ret,[1],10.9%
same,WBC,[1],83 x10_2/uL
same,KIDNEY_L,"25 mg/kg, 9 h, dose level Low",0.9 g
same,KIDNEY_R,"25 mg/kg, 9 h, dose level Low",0.9 g
same,KIDNEY_TOTAL,"25 mg/kg, 9 h, dose level Low",1.8 g
same,LIVER,"25 mg/kg, 9 h, dose level Low",8.2 g
same,ALP,[2],723.6 IU/L
same,ALT,[2],22.2 IU/L
same,AST,[2],49.4 IU/L
same,CRE,[2],0.6 mg/dL
same,Ca,[2],10.4 mg/dL
same,Cl,[2],104.4 meq/L
same,DBIL,[2],0.062 mg/dL
same,GLC,[2],199.4 mg/dL
same,IP,[2],10.1 mg/dL
same,K,[2],5.1 meq/L
same,LDH,[2],75.2 IU/L
same,Na,[2],139 meq/L
same,PL,[2],137.2 mg/dL
same,RALB,[2],3.7 g/dL
same,TBIL,[2],0.4 mg/dL
same,TC,[2],69.8 mg/dL
same,TG,[2],42.8 mg/dL
same,TP,[2],5.5 g/dL
same,gamma-GTP,[2],2 IU/L
same,TERMINAL_BW,"25 mg/kg, 24 h, dose level Low",208.5 g
same,APTT,[3],16.6 s
same,Bas,[3],0%
same,Eos,[3],1%
same,Fbg,[3],200.4 mg/dL
same,Hb,[3],13.1 g/dL
same,Lym,[3],81.2%
same,MCH,[3],21.9 pg
same,MCHC,[3],33.5%
same,MCV,[3],65.4 fL
same,Mono,[3],6.8%
same,RBC,[3],600.4 x10_4/ul
same,Ret,[3],11.4%
same,WBC,[3],97.3 x10_2/uL
same,KIDNEY_L,"25 mg/kg, 24 h, dose level Low",1 g
same,KIDNEY_R,"25 mg/kg, 24 h, dose level Low",1 g
same,KIDNEY_TOTAL,"25 mg/kg, 24 h, dose level Low",2 g
same,LIVER,"25 mg/kg, 24 h, dose level Low",10.4 g
same,ALP,[4],1049.2 IU/L
same,ALT,[4],35.8 IU/L
same,AST,[4],71.2 IU/L
same,CRE,[4],0.5 mg/dL
same,Ca,[4],11.1 mg/dL
same,Cl,[4],105.4 meq/L
same,DBIL,[4],0.012 mg/dL
same,GLC,[4],198.2 mg/dL
same,IP,[4],6.5 mg/dL
same,K,[4],4.7 meq/L
same,Na,[4],142 meq/L
same,PL,[4],142.4 mg/dL
same,RALB,[4],3.9 g/dL
same,TBIL,[4],0.3 mg/dL
same,TC,[4],77.8 mg/dL
same,TG,[4],73.2 mg/dL
same,TP,[4],5.6 g/dL
same,gamma-GTP,[4],1.6 IU/L
same,TERMINAL_BW,"75 mg/kg, 3 h, dose level Middle",194 g
same,APTT,"75 mg/kg, 3 h, tissue Blood, dose level Middle",16.9 s
